In US6355799B1, “Substituted benzene compounds, process for their preparation, and herbicidal and defoliant compositions containing them” (ISK Americas Incorporated, priority 1997, dated 2002):

Tests used:
Format in all cases: in vivo
[1] = system: redroot pigweed (Amaranthus retroflexus, AMARE); experiment: Pre-emerge test, greenhouse herbicide activity screening; conditions: for Pre-emerge Herbicidal Activity AMARE (phytotoxicity rating, scale 0-100): rated 14 days after application, 0 = no damage, 100 = complete death
How it was run: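 Plants grown in 10 cm pots of sandy loam mix received acetone-dissolved compounds through a moving flat-fan nozzle. Doses ranged from 15 to 1000 g ai/ha. Pre-emerge pots were seeded one day earlier, post-emerge pots 8–21 days earlier. Fourteen days on, each pot was graded 0–100 for damage.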

[2] = system: field corn (Zea mays L., var. Dekalb 535, CORN); experiment: Pre-emerge test, crop safety; conditions: for Pre-emerge crop damage CORN (phytotoxicity rating, scale 0-100): rated 14 days after application, 0 = no damage, 100 = complete death
How it was run: (§1)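 Compounds in acetone were track-sprayed at 187 l/ha, 15–1000 g ai/ha, onto sandy loam pots. Pre-emerge seeds were sown one day before spraying, with surface watering afterwards. Post-emerge plants were at the 2–3 leaf stage and sprayed with 0.25% v/v non-ionic surfactant. Injury was rated 0–100 at 14 days.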

[3] = system: upland rice (Oryza sp., var. Tebonnet, RICE); experiment: Pre-emerge test, crop safety; conditions: for Pre-emerge crop damage RICE (phytotoxicity rating, scale 0-100): rated 14 days after application, 0 = no damage, 100 = complete death
How it was run: as §1

[4] = system: large crabgrass (Digitaria sanguinalis, DIGSA); experiment: Pre-emerge test, greenhouse herbicide activity screening; conditions: for Pre-emerge Herbicidal Activity DIGSA (phytotoxicity rating, scale 0-100): rated 14 days after application, 0 = no damage, 100 = complete death
How it was run: (§2)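 Compounds in acetone were track-sprayed at 15-1000 g ai/ha (187 l/ha) on sandy loam pots: pre-emerge one day after seeding, post-emerge at 2-3 leaf stage with 0.25% v/v non-ionic surfactant. Phytotoxicity was rated 14 days later on a 0 (no damage) to 100 (complete death) scale.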

[5] = system: johnsongrass (Sorghum halepense, SORHA); experiment: as above; conditions: for Pre-emerge Herbicidal Activity SORHA (phytotoxicity rating, scale 0-100): rated 14 days after application, 0 = no damage, 100 = complete death
How it was run: as §2

[6] = system: sicklepod (Cassia obtusifolia, CASOB); experiment: as above; conditions: for Pre-emerge Herbicidal Activity CASOB (phytotoxicity rating, scale 0-100): rated 14 days after application, 0 = no damage, 100 = complete death
How it was run: as §2

[7] = system: velvetleaf (Abutilon theophrasti, ABUTH); experiment: as above; conditions: for Pre-emerge Herbicidal Activity ABUTH (phytotoxicity rating, scale 0-100): rated 14 days after application, 0 = no damage, 100 = complete death
How it was run: as §2

[8] = system: barnyardgrass (Echinochloa crus-galli, ECHCG); experiment: as above; conditions: for Pre-emerge Herbicidal Activity ECHCG (phytotoxicity rating, scale 0-100): rated 14 days after application, 0 = no damage, 100 = complete death
How it was run: as §2

[9] = system: lambsquarters (Chenopodium album, CHEAL); experiment: as above; conditions: for Pre-emerge Herbicidal Activity CHEAL (phytotoxicity rating, scale 0-100): rated 14 days after application, 0 = no damage, 100 = complete death
How it was run: as §2

[10] = system: ivyleaf morningglory (Ipomoea hederacea, IPOHE); experiment: as above; conditions: for Pre-emerge Herbicidal Activity IPOHE (phytotoxicity rating, scale 0-100): rated 14 days after application, 0 = no damage, 100 = complete death
How it was run: as §2

[11] = system: green foxtail (Setaria viridis, SETVI); experiment: as above; conditions: for Pre-emerge Herbicidal Activity SETVI (phytotoxicity rating, scale 0-100): rated 14 days after application, 0 = no damage, 100 = complete death
How it was run: as §2

[12] = system: large crabgrass (Digitaria sanguinalis, DIGSA); experiment: Post-emerge test, greenhouse herbicide activity screening; conditions: 14 days after application; for Post-emerge Herbicidal Activity DIGSA: phytotoxicity rating 0-100 (0 no damage, 100 complete death); for phytotoxicity rating DIGSA: post-emerge, rating scale 0-100
How it was run: (§3)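 Visual ratings on a 0-100 scale (0 no damage, 100 all plants dead) were taken at 14 days after treatment. Rates of 15-1000 g ai/ha in acetone, 187 l/ha, were sprayed onto soil one day after planting (pre-emerge) or onto 2-3 leaf plants with 0.25% v/v surfactant (post-emerge).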

[13] = system: johnsongrass (Sorghum halepense, SORHA); experiment: as above; conditions: 14 days after application; for Post-emerge Herbicidal Activity SORHA: phytotoxicity rating 0-100 (0 no damage, 100 complete death); for phytotoxicity rating SORHA: post-emerge, rating scale 0-100
How it was run: as §3

[14] = system: sicklepod (Cassia obtusifolia, CASOB); experiment: as above; conditions: 14 days after application; for Post-emerge Herbicidal Activity CASOB: phytotoxicity rating 0-100 (0 no damage, 100 complete death); for phytotoxicity rating CASOB: post-emerge, rating scale 0-100
How it was run: as §3

[15] = system: velvetleaf (Abutilon theophrasti, ABUTH); experiment: as above; conditions: 14 days after application; for Post-emerge Herbicidal Activity ABUTH: phytotoxicity rating 0-100 (0 no damage, 100 complete death); for phytotoxicity rating ABUTH: post-emerge, rating scale 0-100
How it was run: as §3

[16] = system: barnyardgrass (Echinochloa crus-galli, ECHCG); experiment: as above; conditions: 14 days after application; for Post-emerge Herbicidal Activity ECHCG: phytotoxicity rating 0-100 (0 no damage, 100 complete death); for phytotoxicity rating ECHCG: post-emerge, rating scale 0-100
How it was run: as §3

[17] = system: lambsquarters (Chenopodium album, CHEAL); experiment: as above; conditions: 14 days after application; for Post-emerge Herbicidal Activity CHEAL: phytotoxicity rating 0-100 (0 no damage, 100 complete death); for phytotoxicity rating CHEAL: post-emerge, rating scale 0-100
How it was run: as §3

[18] = system: ivyleaf morningglory (Ipomoea hederacea, IPOHE); experiment: as above; conditions: 14 days after application; for Post-emerge Herbicidal Activity IPOHE: phytotoxicity rating 0-100 (0 no damage, 100 complete death); for phytotoxicity rating IPOHE: post-emerge, rating scale 0-100
How it was run: as §3

[19] = system: redroot pigweed (Amaranthus retroflexus, AMARE); experiment: as above; conditions: 14 days after application; for Post-emerge Herbicidal Activity AMARE: phytotoxicity rating 0-100 (0 no damage, 100 complete death); for phytotoxicity rating AMARE: post-emerge
How it was run: as §3

[20] = system: green foxtail (Setaria viridis, SETVI); experiment: as above; conditions: 14 days after application; for Post-emerge Herbicidal Activity SETVI: phytotoxicity rating 0-100 (0 no damage, 100 complete death); for phytotoxicity rating SETVI: post-emerge, rating scale 0-100
How it was run: as §3

[21] = system: field corn (Zea mays L., var. Dekalb 535, CORN); experiment: Post-emerge test, crop safety; conditions: 14 days after application; for Post-emerge Herbicidal Activity CORN (crop damage): phytotoxicity rating 0-100 (0 no damage, 100 complete death); for phytotoxicity rating CORN (crop damage): post-emerge, rating scale 0-100
How it was run: as §2

[22] = system: upland rice (Oryza sp., var. Tebonnet, RICE); experiment: Post-emerge test, crop safety; conditions: 14 days after application; for Post-emerge Herbicidal Activity RICE (crop damage): phytotoxicity rating 0-100 (0 no damage, 100 complete death); for phytotoxicity rating RICE (crop damage): post-emerge, rating scale 0-100
How it was run: as §2

[23] = 250 g ai/ha, phytotoxicity rating 0-100, 14 days after application
[24] = 250 g ai/ha, crop damage rating 0-100, 14 days after application

CCOC(=O)C(C)Oc1c(Cl)cc(F)c(-n2c(=O)cc(C(F)(F)F)n(C)c2=O)c1N (centres unmarked) [Compound 1-60]
Pre-emerge Herbicidal Activity AMARE (phytotoxicity rating, scale 0-100) ([1]; 63 g ai/ha): 100
Pre-emerge Herbicidal Activity AMARE (phytotoxicity rating, scale 0-100) ([1]; 250 g ai/ha): 100
Pre-emerge crop damage CORN (phytotoxicity rating, scale 0-100) ([2]; 63 g ai/ha): 50
Pre-emerge crop damage CORN (phytotoxicity rating, scale 0-100) ([2]; 250 g ai/ha): 95
Pre-emerge crop damage RICE (phytotoxicity rating, scale 0-100) ([3]; 63 g ai/ha): 40
Pre-emerge crop damage RICE (phytotoxicity rating, scale 0-100) ([3]; 250 g ai/ha): 95
Pre-emerge Herbicidal Activity DIGSA (phytotoxicity rating, scale 0-100) ([4]; 63 g ai/ha): 95
Pre-emerge Herbicidal Activity DIGSA (phytotoxicity rating, scale 0-100) ([4]; 250 g ai/ha): 100
Pre-emerge Herbicidal Activity SORHA (phytotoxicity rating, scale 0-100) ([5]; 63 g ai/ha): 80
Pre-emerge Herbicidal Activity SORHA (phytotoxicity rating, scale 0-100) ([5]; 250 g ai/ha): 100
Pre-emerge Herbicidal Activity CASOB (phytotoxicity rating, scale 0-100) ([6]; 63 g ai/ha): 70
Pre-emerge Herbicidal Activity CASOB (phytotoxicity rating, scale 0-100) ([6]; 250 g ai/ha): 100
Pre-emerge Herbicidal Activity ABUTH (phytotoxicity rating, scale 0-100) ([7]; 63 g ai/ha): 100
Pre-emerge Herbicidal Activity ABUTH (phytotoxicity rating, scale 0-100) ([7]; 250 g ai/ha): 100
Pre-emerge Herbicidal Activity ECHCG (phytotoxicity rating, scale 0-100) ([8]; 63 g ai/ha): 50
Pre-emerge Herbicidal Activity ECHCG (phytotoxicity rating, scale 0-100) ([8]; 250 g ai/ha): 95
Pre-emerge Herbicidal Activity CHEAL (phytotoxicity rating, scale 0-100) ([9]; 63 g ai/ha): 100
Pre-emerge Herbicidal Activity CHEAL (phytotoxicity rating, scale 0-100) ([9]; 250 g ai/ha): 100
Pre-emerge Herbicidal Activity IPOHE (phytotoxicity rating, scale 0-100) ([10]; 63 g ai/ha): 90
Pre-emerge Herbicidal Activity IPOHE (phytotoxicity rating, scale 0-100) ([10]; 250 g ai/ha): 100
Pre-emerge Herbicidal Activity SETVI (phytotoxicity rating, scale 0-100) ([11]; 63 g ai/ha): 95
Pre-emerge Herbicidal Activity SETVI (phytotoxicity rating, scale 0-100) ([11]; 250 g ai/ha): 100
Post-emerge Herbicidal Activity DIGSA ([12]; 63 g ai/ha): 0
Post-emerge Herbicidal Activity DIGSA ([12]; 250 g ai/ha): 50
Post-emerge Herbicidal Activity SORHA ([13]; 63 g ai/ha): 0
Post-emerge Herbicidal Activity SORHA ([13]; 250 g ai/ha): 20
Post-emerge Herbicidal Activity CASOB ([14]; 63 g ai/ha): 50
Post-emerge Herbicidal Activity CASOB ([14]; 250 g ai/ha): 90
Post-emerge Herbicidal Activity ABUTH ([15]; 63 g ai/ha): 100
Post-emerge Herbicidal Activity ABUTH ([15]; 250 g ai/ha): 100
Post-emerge Herbicidal Activity ECHCG ([16]; 63 g ai/ha): 0
Post-emerge Herbicidal Activity ECHCG ([16]; 250 g ai/ha): 20
Post-emerge Herbicidal Activity CHEAL ([17]; 63 g ai/ha): 99
Post-emerge Herbicidal Activity CHEAL ([17]; 250 g ai/ha): 100
Post-emerge Herbicidal Activity IPOHE ([18]; 63 g ai/ha): 90
Post-emerge Herbicidal Activity IPOHE ([18]; 250 g ai/ha): 100
Post-emerge Herbicidal Activity AMARE ([19]; 63 g ai/ha): 90
Post-emerge Herbicidal Activity AMARE ([19]; 250 g ai/ha): 100
Post-emerge Herbicidal Activity SETVI ([20]; 63 g ai/ha): 0
Post-emerge Herbicidal Activity SETVI ([20]; 250 g ai/ha): 10
Post-emerge Herbicidal Activity CORN (crop damage) ([21]; 63 g ai/ha): 0
Post-emerge Herbicidal Activity CORN (crop damage) ([21]; 250 g ai/ha): 50
Post-emerge Herbicidal Activity RICE (crop damage) ([22]; 63 g ai/ha): 10
Post-emerge Herbicidal Activity RICE (crop damage) ([22]; 250 g ai/ha): 40

Nn1c(C(F)(F)F)cc(=O)n(-c2c(F)cc(Cl)c(O)c2NC(=O)c2ccc3ccccc3c2)c1=O [Compound 2-192]
Pre-emerge Herbicidal Activity AMARE [1, 23]: 90
Pre-emerge Herbicidal Activity CORN [2, 24]: 0
Pre-emerge Herbicidal Activity RICE [3, 24]: 0
Pre-emerge Herbicidal Activity DIGSA [4, 23]: 0
Pre-emerge Herbicidal Activity SORHA [5, 23]: 0
Pre-emerge Herbicidal Activity CASOB [6, 23]: 0
Pre-emerge Herbicidal Activity ABUTH [7, 23]: 85
Pre-emerge Herbicidal Activity ECHCG [8, 23]: 0
Pre-emerge Herbicidal Activity CHEAL [9, 23]: 80
Pre-emerge Herbicidal Activity IPOHE [10, 23]: 30
Pre-emerge Herbicidal Activity SETVI [11, 23]: 0
phytotoxicity rating DIGSA ([12]; 63 g ai/ha): 0
phytotoxicity rating DIGSA ([12]; 250 g ai/ha): 0
phytotoxicity rating SORHA ([13]; 63 g ai/ha): 0
phytotoxicity rating SORHA ([13]; 250 g ai/ha): 0
phytotoxicity rating CASOB ([14]; 63 g ai/ha): 40
phytotoxicity rating CASOB ([14]; 250 g ai/ha): 60
phytotoxicity rating ABUTH ([15]; 63 g ai/ha): 85
phytotoxicity rating ABUTH ([15]; 250 g ai/ha): 85
phytotoxicity rating ECHCG ([16]; 63 g ai/ha): 0
phytotoxicity rating ECHCG ([16]; 250 g ai/ha): 0
phytotoxicity rating CHEAL ([17]; 63 g ai/ha): 60
phytotoxicity rating CHEAL ([17]; 250 g ai/ha): 50
phytotoxicity rating IPOHE ([18]; 63 g ai/ha): 50
phytotoxicity rating IPOHE ([18]; 250 g ai/ha): 70
phytotoxicity rating AMARE ([19]; 63 g ai/ha, rating scale 0-100 (0 no damage, 100 complete death)): 70
phytotoxicity rating AMARE ([19]; 250 g ai/ha, rating scale 0-100): 70
phytotoxicity rating SETVI ([20]; 63 g ai/ha): 0
phytotoxicity rating SETVI ([20]; 250 g ai/ha): 0
phytotoxicity rating CORN (crop damage) ([21]; 63 g ai/ha): 5
phytotoxicity rating CORN (crop damage) ([21]; 250 g ai/ha): 15
phytotoxicity rating RICE (crop damage) ([22]; 63 g ai/ha): 0
phytotoxicity rating RICE (crop damage) ([22]; 250 g ai/ha): 20
